We go through 1 molecule from ChEMBL document CHEMBL1144867, “Antiviral amphipathic oligo- and polyribonucleotides: analogue development and biological studies” (J Med Chem, 2003).

By EC50 is commonly meant the midpoint of the concentration-response curve. A lower EC50 goes with greater potency.

The assay has as its system MRC5. As to the kind of experiment: Inhibitory activity of compound against human cytomegalovirus (HCMV) in MRC-5 cells. It counts as functional, cell-based.

In turn, `Nc1nc2c(ncn2COC(CO)CO)c(=O)[nH]1` [GANCICLOVIR] gave an EC50 of 9.4 µM.
